Data from patent US6669951B2, “Compositions and methods for enhancing drug delivery across and into epithelial tissues” (CellGate, Inc., priority 1999, dated 2003).
Where two headings read alike, the source gives them in different places.

Key:
[1] = cited from earlier work
[2] = test system: human skin grafts on SCID mice; conditions: in vivo
Method: Samples (100 μl) were applied as a liquid within excipient and prevented from dispersing by a Vaseline™ barrier and allowed to penetrate for fifteen minutes. At the end of this period animal was sacrificed, the relevant section of skin was excised, embedded in mounting medium (OCT) and frozen. […] Slides were analyzed by fluorescent microscopy.

[3] = test system: CD3+ T cells in inflamed skin; conditions: mouse, in vivo
[4] = test system: skin of nude mice; test: Penetration of Cu-DTPA complexes into skin of nude mice; format: in vivo, mouse; conditions: 1 μM to 1 mM, abdominal region, 15, 30, 45 minutes
Text: As controls, an equimolar amount of the Cu-DTPA complex was spotted onto the abdominal region.

[5] = Blood levels after buccal delivery; format: in vivo, rat; conditions: 5 mg/kg in Cremophor EL:ethanol 1:1
Text: (§1) Clotting was inhibited by transferring the blood to glass tubes containing 100λ of 0.5% EDTA, and the blood was frozen.

[6] = Half-life / release of conjugate in buffer; format: physicochemical; conditions: for half-life: buffer
[7] = Drug blood levels after intracolonic injection (LC MS MS); format: in vivo, Wistar rats; conditions: intracolonic in PBS
Method: Wistar rats, females of approximately 200-300 g (Simonsen, Gilroy, Calif.), were anesthetized, their abdomens were shaved, midline incisions were made, and a one-half inch section of the ascending colon in each animal was tied off with sutures. Taxol and cyclosporin (5 mg/kg) were injected as solutions in a 1:1 v/v Cremophor EL:ethanol mixture, whereas equivalent molar amounts of the r7 conjugates were injected in PBS. In all cases, the volume injected was approximately 500λ. The colon was placed back into the cavity, and the incision was closed using sutures.
as §1
Either taxol or cyclosporin was extracted from the whole blood using a modification of literature procedures. Briefly, whole blood (100λ) was transferred to a screw capped glass tube containing five mls of diethyl ether. The sample was vortexed vigorously for two minutes, centrifuged, and frozen in dry ice/methanol. The ethereal layer was transferred to another glass tube and the ether was evaporated. […] Samples were placed into a Perkin-Elmer series 200 autosampler and sequencially injected onto a C18 reverse column at 70° C. connected to a Shimadzu HPLC system, eluted with 70% methanol, 30% aqueous ammonium formate buffer, and the effluent was analyzed on a PE Sciex API 3000 tandem mass spectrometer.

[8] = test system: IL-2 secretion by Jurkat cells; test: Inhibition of IL-2 secretion, PMA/ionomycin stimulated; format: cell-based, human
Method: T cells subsequently were stimulated to produce IL-2 by addition of 10 ng/ml PMA (Sigma, St. Louis, Mo.) and 1 μM ionomycin (CalBiochem, San Diego, Calif.). Cultures were incubated overnight at 37° C. and supernatants were collected and IL-2 was measured using a fluorescent ELISA. Briefly, plates were coated with 4 μg/ml anti-human IL-2 antibody (BD Pharmingen, San Diego, Calif.), blocked with PBS containing 10% FBS for 1 hour at room temperature, washed, and supernatants added and incubated for 1 hour. Media was removed and biotinylated anti-human IL-2 (1.6 μg/ml), was added for one hour. The plates were washed, and then europium labeled streptavidin (0.04 ng/ml) was added for one hour. After another wash, enhancement solution was added and the resulting fluorescence was measured using a Wallac plate reader (Wallac, Turku, Finland).
See R. Wiskocil, et al., J Immunol 134, 1599-603 (1985).

[9] = test system: ear inflammation in Balb/c mice; test: Murine contact dermatitis (DNFB), ear inflammation; format: in vivo, mouse
Method: Balb/c (6-7 weeks) mice were painted on the abdomen with 100 μl of 0.7% DNFB in acetone olive oil (95:5). Three days later both ears of the animals were restimulated with 0.5% DNFB in acetone. […] Ear inflammation was measured 24 hours after restimulation using a spring loaded caliper. The percent reduction of inflammation was calculated using the following formula […], where t=thickness of the treated ear, n=the thickness of a normal untreated ear, and u=thickness of an inflamed ear without any treatment. N=20 animals in each group.

[10] = test system: epithelia of the gastrointestinal tract; test: Gastrointestinal absorption protocol (histology); format: in vivo, mouse
Method: Experiments were performed on 8- to 10-week-old female Swiss Webster mice purchased from Taconic (Germantown, N.Y.). Mice were anesthetized with Nembutal and a midline incision was made along the abdomen. Intestines were measured, tied off at both ends of the desired section with sutures, and biotinylated peptides were injected into the lumen (approximately 100λ/inch). After a fifteen minute incubation, the tissue was removed and the lumen was gently washed with PBS.
Immediately following incubation with biotinylated peptides, the anesthetized rodents were sacrificed by cervical dislocation and the tied off sections of the GI tract were removed. The lumens of the various sections were filled with OCT using a plastic tipped syringe, immersed in OCT filled boats, and snap frozen in a 2-methyl-butane/dry ice solution. Frozen sections were allowed to warm slightly and 2 mm thick sagital cuts were made using a steel razor blade. The cuts were placed into OCT molds and snap frozen in a 2-methyl-butane/dry ice solution. Sections (5 μm) were cut on the cryostat, fixed in acetone at 4° C. for 10 minute, and allowed to air dry. After rehydration in PBS for 5 minutes, sections were blocked with normal horse serum, washed, incubated with streptavidin-FITC (20 μg/ml) for 30 minutes, washed, and mounted with mounting medium containing propidium iodide (PI).
After fifteen minutes of exposure, the relevant section of tissue was dissected, frozen, sectioned, and stained with Streptavidin fluorescein to define the location of the biotinylated peptide, and propidium iodide to counterstain all the nuclei in the section.

[11] = test system: squamous epithelia of the oral cavity; test: Penetration into squamous epithelia of the oral cavity; format: in vivo, mouse; conditions: fifteen minutes
Text: To determine whether CellGate transporters could enter the squamous epithelia of the oral cavity, mice were anesthetized with Nembutal, their heads tipped to one side and solutions of the biotinylated peptides were placed in their mouths. After fifteen minutes the liquid was removed by pipette.
The capacity of the transporters to enter the squamous epithelial layers of the oral cavity was examined. A mouse was anesthetized, its head was tipped so that a solution of biotinylated r9 could be administered. The animal was kept in this position for fifteen minutes, at which time it was sacrificed, and the tongue and cheek were dissected, frozen, sectioned, stained with streptavidin-fluorescein, and counterstained with propidium iodide.

For `CC(=O)O[C@@]12CO[C@@H]1C[C@H](O)[C@@]1(C)C(=O)[C@H](O)C3=C(C)[C@@H](OC(=O)[C@H](O)[C@@H](NC(=O)OC(C)(C)C)c4ccccc4)C[C@@](O)([C@@H](OC(=O)c4ccccc4)[C@H]21)C3(C)C` [taxotere], the water solubility [1] is given as 6 to 7 µg/mL.
In the case of `C/C=C/C[C@@H](C)[C@@H](OC(=O)CSC[C@H](NC(=O)[C@@H](CCCNC(=N)N)NC(=O)[C@@H](CCCNC(=N)N)NC(=O)[C@@H](CCCNC(=N)N)NC(=O)[C@@H](CCCNC(=N)N)NC(=O)[C@@H](CCCNC(=N)N)NC(=O)[C@@H](CCCNC(=N)N)NC(=O)[C@@H](CCCNC(=N)N)NC(=O)CCCCCNC(=O)CCCC[C@@H]1SC[C@@H]2NC(=O)N[C@@H]21)C(N)=O)[C@H]1C(=O)N[C@@H](CC)C(=O)N(C)CC(=O)N(C)[C@@H](CC(C)C)C(=O)N[C@@H](C(C)C)C(=O)N(C)[C@@H](CC(C)C)C(=O)N[C@@H](C)C(=O)N[C@H](C)C(=O)N(C)[C@@H](CC(C)C)C(=O)N(C)[C@@H](CC(C)C)C(=O)N(C)[C@@H](C(C)C)C(=O)N1C` [biotin r7 CsA, B-aca-r7-Cys-O-acyl-Cyclosporin A], the “penetration into human skin” value [2] is reported as “penetrated human epidermis and dermis” and the “presence in infiltrating T cells of inflamed skin” value [3] is reported as “found in all CD3[+] T cells in the tissue”.
With “Copper-diethylenetriaminepentaacetic Acid Complex [Cu-DTPA]” the “colour on skin after wiping off” value [4] was “not where the Cu-DTPA alone was spotted”.
In the case of `CC(=O)O[C@H]1C(=O)[C@@]2(C)[C@H]([C@H](OC(=O)c3ccccc3)[C@]3(O)C[C@H](OC(=O)[C@H](O)[C@@H](NC(=O)c4ccccc4)c4ccccc4)C(C)=C1C3(C)C)[C@]1(OC(C)=O)CO[C@@H]1C[C@@H]2O` [taxol, paclitaxel], the “appearance of taxol in blood after buccal administration” value [5] is reported as “appeared in the blood stream by the first time point”.
For `CC(=O)N[C@@H](CSCC(=O)O[C@@H](C(=O)O[C@H]1C[C@@]2(O)[C@@H](OC(=O)c3ccccc3)[C@@H]3[C@]4(OC(C)=O)CO[C@@H]4C[C@H](O)[C@@]3(C)C(=O)[C@H](OC(C)=O)C(=C1C)C2(C)C)[C@@H](NC(=O)c1ccccc1)c1ccccc1)C(=O)N[C@H](CCCNC(=N)N)C(=O)N[C@H](CCCNC(=N)N)C(=O)N[C@H](CCCNC(=N)N)C(=O)N[C@H](CCCNC(=N)N)C(=O)N[C@H](CCCNC(=N)N)C(=O)N[C@H](CCCNC(=N)N)C(=O)N[C@H](CCCNC(=N)N)C(N)=O` [compound 14], the half-life ([6]; PBS, pH 7.4 at 37° C., read-out: half life (converted)) was 5 h and the “blood levels of taxol” value [7] was “did not result in significant blood levels of taxol within five hours”.
For `C/C=C/C[C@@H](C)[C@@H](OC(=O)CN(Cc1ccccc1)C(=O)CNCC(=O)N[C@@H](CCCNC(=N)N)C(=O)N[C@@H](CCCNC(=N)N)C(=O)N[C@@H](CCCNC(=N)N)C(=O)N[C@@H](CCCNC(=N)N)C(=O)N[C@@H](CCCNC(=N)N)C(=O)N[C@@H](CCCNC(=N)N)C(=O)N[C@@H](CCCNC(=N)N)C(N)=O)[C@H]1C(=O)N[C@@H](CC)C(=O)N(C)CC(=O)N(C)[C@@H](CC(C)C)C(=O)N[C@@H](C(C)C)C(=O)N(C)[C@@H](CC(C)C)C(=O)N[C@@H](C)C(=O)N[C@H](C)C(=O)N(C)[C@@H](CC(C)C)C(=O)N(C)[C@@H](CC(C)C)C(=O)N(C)[C@@H](C(C)C)C(=O)N1C` [releasable R7 CsA], the “inhibition of IL-2 secretion” value ([8]; added 12 hours prior to PMA/ionomycin) was “dose dependent inhibition was observed”, the “EC50 relative to CsA dissolved in alcohol” value ([8]; added at the same time) was “approximately two” and the “reduction in ear inflammation” value ([9]; 0.01% topical) was 40.9%±3.3. The “reduction in ear inflammation” value ([9]; 0.1% topical) was 64.8%±4.0, the “reduction in inflammation in the untreated ear” value ([9]; 1%) was “No reduction in inflammation was seen in the untreated ear” and the “reduction in ear inflammation” value ([9]; 1% topical, 1, 5 and 20 h after restimulation, measured 24 hours) was 73.9%±4.0. For the same compound, the pH dependent stability ([6]; absence of serum) was “stable at acidic pH, but labile at physiological pH in the absence of serum” and the half-life ([6]; PBS pH 7.4 (37° C. where stated), read-out: half-life) was 1.5 h.
With `N=C(N)NCCC[C@@H](NC(=O)[C@@H](CCCNC(=N)N)NC(=O)[C@@H](CCCNC(=N)N)NC(=O)[C@@H](CCCNC(=N)N)NC(=O)[C@@H](CCCNC(=N)N)NC(=O)[C@@H](CCCNC(=N)N)NC(=O)[C@@H](CCCNC(=N)N)NC(=O)[C@@H](CCCNC(=N)N)NC(=O)[C@@H](CCCNC(=N)N)NC(=O)CCCCCNC(=O)CCCC[C@@H]1SC[C@@H]2NC(=O)N[C@@H]21)C(N)=O` [bio aca r9 CONH2] the staining of duodenum ([10]; 100 μM injected into lumen, fifteen minutes) was “no detectable staining over background was observed”, the “staining of ascending and transverse colon” value ([10]; 100 μM, fifteen minutes) was “stained all surface areas of the villi, and penetrated several cell layers” and the staining of ileum ([10]; 100 μM, fifteen minutes) was “first sign of uniform staining”. For the same compound, the staining of jejunum ([10]; 100 μM, fifteen minutes) was “Poor staining”, the “uptake along the GI tract” value ([10]; mouse, in vivo) was “uptake increasing with distance from the gastric pylorus” and the “penetration into cheek and tongue” value [11] was “quickly and efficiently penetrated multiple layers of the epithelia”.
